# Measured values taken from patent US5922711A, “8-substituted quinazolines, quinoxalines and benzopyridazines” (Fujisawa Pharmaceutical Co., Ltd., priority 1993, dated 1999).
# Structures can show the parent of a compound that is named as a salt.
# Molecular target: T1, Bradykinin receptor (Cavia porcellus, UniProt O70526)
# T1 construct: The ileum was removed and homogenized in buffer; from tissue; host or cells: guinea pig ileum, crude membrane suspension
# T1 sequence (O70526 1-372): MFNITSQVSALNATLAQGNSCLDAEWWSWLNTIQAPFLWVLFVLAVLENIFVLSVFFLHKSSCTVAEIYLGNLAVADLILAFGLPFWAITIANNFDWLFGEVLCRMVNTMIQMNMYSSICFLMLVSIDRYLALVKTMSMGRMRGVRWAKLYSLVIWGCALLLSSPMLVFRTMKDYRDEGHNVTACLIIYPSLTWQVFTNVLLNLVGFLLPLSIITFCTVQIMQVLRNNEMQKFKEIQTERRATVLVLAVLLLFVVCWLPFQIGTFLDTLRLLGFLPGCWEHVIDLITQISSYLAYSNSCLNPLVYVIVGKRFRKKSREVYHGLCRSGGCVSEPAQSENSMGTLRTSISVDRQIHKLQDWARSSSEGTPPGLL
# Experiment: 3H-Bradykinin receptor binding (guinea pig ileum crude membrane)
# Conditions: concentration: 1 × 10^-6 M, 3H-Bradykinin 0.06 nM, room temperature, 60 minutes
# Experimental: ^3 H-Bradykinin receptor binding
# (a) Crude ileum membrane preparation
# Male Hartly strain guinea pigs were sacrificed by decapitation. The ileum was removed and homogenized in buffer (50 mM trimethylaminoethanesulfonic acid (TES), 1 mM 1,10-phenanthroline pH 6.8). The homogenate was centrifuged (1000×g, 20 minutes) to remove tissue clumps and the supernatant was centrifuges (100,000×g, 60 minutes) to yield a pellet. The pellet was resuspended in buffer (50 mm TES, 1 mM 1,10-phenanthroline, 140 mg/l bacitracin, 1 mM dithiothreiol, 0.1% bovine serum albumin pH 6.8) and homogenized with a glass-teflon homogenizer to yield suspension which was referred to as crude membrane suspension. The obtained membrane suspension was stored at -80° C. until use.
# (b) ^3 H-Bradykinin binding to the membrane
# The frozen crude membrane suspension was thawed. In binding assays, ^3 H-Bradykinin (0.06 nM) and drug (1×10^-6 M) were incubated with 50 μl of the membrane suspension at room temperature for 60 minutes in a final volume of 250 μl. Separation of receptor-bound from free ^3 H-Bradykinin is achieved by immediate filtration under vacuum and washed three times with 5 ml of ice-cold buffer (50 mM Tris-HCl pH 7.5). Non-specific binding was defined as binding in the presence of 0.1 μM Bradykinin. The radioactivity retained on rinsed filters was determined by a liquid-scintillation counter.
row,inhibition at 1 µM [%],SMILES
1,99,"Cc1ccc2cccc(OCc3c(Cl)ccc(N(C)C(=O)CNC(=O)/C=C/c4ccc(OCCN(C)C)cc4)c3Cl)c2n1 [41-(53), 8-[2,6-Dichloro-3-[N-[4-[2-(N,N-dimethylamino)ethoxy]cinnamoylglycyl)-N-methylamino]benzloxy]-2-methylquinoline dihydrochloride]"
2,95,"CCNC(=O)NCC(=O)N(C)c1ccc(Cl)c(COc2cccc3c(OC)cc(C)nc23)c1Cl [41-(64), 8-[2,6-Dichloro-3-[N-(N'-ethylureidoacetyl)-N-methylamino]benzyloxy]-4-methoxy-2-methylquinoline hydrochloride]"
3,99,"CCC(=O)Nc1cccc(NC(=O)NCC(=O)N(C)c2ccc(Cl)c(COc3cccc4ccc(C)nc34)c2Cl)c1 [57 (hydrochloride), 8-[2,6-Dichloro-3-[N-methyl-N-[N'-(3-propionamidophenyl)ureidoacetyl]amino]benzyloxy]-2-methylquinoline]"
4,99,"Cc1ccc2cccc(OCc3c(Cl)ccc(N(C)C(=O)CNC(=O)/C=C/c4ccc(NC(=O)c5ccccn5)cc4)c3Cl)c2n1 [58-(11) (dihydrochloride), 8-[2,6-Dichloro-3-[N-methyl-N-[4-(2-pyridine-carboxamido)cinnamoylglycyl]amino]benzyloxy]-2-methylquinoline]"

# Second part, the molecule before the results:
row,SMILES,inhibition at 1 µM [%]
1,"CCc1cc(Cl)c2cccc(OCc3c(Cl)ccc(N(C)C(=O)CNC(=O)Nc4cccc(C(C)=O)c4)c3Cl)c2n1 [29-(36), 8-[3-[N-[N'-(3-Acetylphenyl)ureidoacetyl]-N-methylamino]-2,6-dichlorobenzyloxy]-4-chloro-2-ethylquinoline hydrochloride]",98
2,"Cc1ccc2cccc(OCc3c(Cl)ccc(N(C)C(=O)CNC(=O)Nc4cccc(C(=O)N(C)c5cccnc5)c4)c3Cl)c2n1 [34-(7), 8-[2,6-Dichloro-3-[N-methyl-N-[N'-[3-[N-methyl-N-(3-pyridyl)carbamoyl]phenyl]ureidoacetyl]amino]benzyloxy]-2-methylquinoline]",100
3,"Cc1ccc2cccc(OCc3c(Cl)ccc(N(C)C(=O)CNC(=O)/C=C/c4ccc(N)cc4)c3Cl)c2n1 [35-(3), 8-[3-[N-(4-Aminocinnamoylglycyl)-N-methylamino]-2,6-dichlorobenzyloxy]-2-methylquinoline]",99
4,"Cc1ccc2cccc(OCc3c(Cl)ccc(N(C)C(=O)CNC(=O)Nc4cccc(N)c4)c3Cl)c2n1 [41-(12), 8-[3-[N-[N'-(3-Aminophenyl)ureidoacetyl]-N-methylaminol-2,6-dichlorobenzyloxy]-2-methylquinolinedihydrochloride]",95
